Source: US20240408093A1, “HETEROBIFUNCTIONAL COMPOUNDS AND THEIR USE IN TREATING DISEASE” (HALDA THERAPEUTICS OPCO, INC., priority 2022, published 2024)

Tests used:
[1] = target: T1, EGFR T790M/L858R kinase domain (Homo sapiens, UniProt P00533, L858R/T790M); assay: EGFR cellular target engagement assay (HEK293 cells stable for EGFR T790M, L858R); type: cell-based; details: 6 hours, read-out: TE50 (the source's name)
T1 construct: EGFR (amino acids 696-1022, T790M, L858R); expressed in transfected cells; host or cells: HEK293, lentiviral transduction, puromycin selection
Protocol: HEK293 cells were cultured in DMEM (Gibco 11995), supplemented with 10% Heat-inactivated FBS (Gibco A38400-01) and 1% Penicillin/Streptomycin (Gibco 15140-122) at 37° C. with 5% CO2 in a humidified tissue culture incubator. Cells were made stable for EGFR (amino acids 696-1022, T790M, L858R) by lentiviral transduction, followed by selection with 1 μg/ml Puromycin Dihydrochloride (Thermo A1113803). Cells were seeded at 30,000 cells/ml in 0.1 ml of complete media in Poly-D-lysine-treated 96-well plates and incubated overnight. Cells were treated with increasing concentrations of compound and let incubate at 37C and 5% CO2 for 6 hours, after which media was aspirated, washed with 1×PBS and cells were lysed in RIPA Lysis and Extraction Buffer (Thermo 89901) supplemented with 5 mM MgCl2, Protease and Phosphatase inhibitor cocktail (Thermo 1861281), and Universal Nuclease (Thermo 88700). Plates with RIPA were shaken at 4° C. at 600 rpm for 15 min. After shaking samples, they were collected and spun down at 21,000 g for 15 min at 4° C. Following centrifugation, […] of lysate was added to Laemmli Sample Buffer (Bio-Rad 1610747) plus 10% beta-mercaptoethanol, boiled for 15 minutes at 65° C. and loaded onto 4-20% Mini-PROTEAN TGX™ Precast Protein Gels (Bio-Rad). Protein was transferred to a nitrocellulose membrane (Thermo LC2000) using the iBlot 2 Dry Blotting System (Thermo). After transfer, membranes were washed in 1× TBST (Bioland Scientific LLC TBST0103) 3× for 5 min. Following the wash, blocking buffer (Rockland MB-070) was added for 1 hour at room temperature. Primary antibodies against EGFR (Cell Signaling Technology 3197) and actin (Cell Signaling Technology 3700S) were added overnight at 4° C. Membranes were then washed again 3× for 5 min in 1× TBST. Secondary antibodies (LI-COR 926-68072 and 926-68073) were added and shaken for 1 hr at room temperature. Membranes were then washed 3× for 5 min in 1×TBST and developed. Membranes were placed on an Odyssey imager (LI-COR).

[2] = target: T2, EGFR T790M, L858R (amino acids 669-1011) (Homo sapiens, UniProt P00533, L858R/T790M); assay: KdELECT binding assay, EGFR T790M, L858R
T2 construct: purchased Eurofins Discovery (KdELECT); host or cells: mammalian cells (HEK-293)
Protocol: Exemplary compounds were tested for ability to bind to EGFR WT (amino acids 669-1011, Accession Number NP_005219.2) or EGFR T790M, L858R (amino acids 669-1011 Accession Number NP_005219.2) expressed from bacteria or mammalian cells, respectively. Compounds were tested using the KdELECT assay at Eurofins Discovery.
Kinase-tagged T7 phage strains were prepared in an E. coli host derived from the BL21 strain. E. coli were grown to log-phase and infected with T7 phage and incubated with shaking at 32° C. until lysis. The lysates were centrifuged and filtered to remove cell debris. The remaining kinases were produced in HEK-293 cells and subsequently tagged with DNA for qPCR detection. Streptavidin-coated magnetic beads were treated with biotinylated small molecule ligands for 30 minutes at room temperature to generate affinity resins for kinase assays. The liganded beads were blocked with excess biotin and washed with blocking buffer (SeaBlock (Pierce), 1% BSA, 0.05% Tween 20, 1 mM DTT) to remove unbound ligand and to reduce non-specific binding. Binding reactions were assembled by combining kinases, liganded affinity beads, and test compounds in 1x binding buffer (20% SeaBlock, 0.17× PBS, 0.05% Tween 20, 6 mM DTT). Test compounds were prepared as 111× stocks in 100% DMSO. Kd values were determined using an 11-point 3-fold compound dilution series with three DMSO control points. All compounds for Kd measurements are distributed by acoustic transfer (non-contact dispensing) in 100% DMSO. The compounds were then diluted directly into the assays such that the final concentration of DMSO was 0.9%. All reactions performed in polypropylene 384-well plate. Each was a final volume of 0.02 mL. The assay plates were incubated at room temperature with shaking for 1 hour and the affinity beads were washed with wash buffer (1× PBS, 0.05% Tween 20). The beads were then re-suspended in elution buffer (1× PBS, 0.05% Tween 20, 0.5 μM nonbiotinylated affinity ligand) and incubated at room temperature with shaking for 30 minutes. The kinase concentration in the eluates was measured by qPCR.

T1 sequence (P00533 696-1022 T790M/L858R): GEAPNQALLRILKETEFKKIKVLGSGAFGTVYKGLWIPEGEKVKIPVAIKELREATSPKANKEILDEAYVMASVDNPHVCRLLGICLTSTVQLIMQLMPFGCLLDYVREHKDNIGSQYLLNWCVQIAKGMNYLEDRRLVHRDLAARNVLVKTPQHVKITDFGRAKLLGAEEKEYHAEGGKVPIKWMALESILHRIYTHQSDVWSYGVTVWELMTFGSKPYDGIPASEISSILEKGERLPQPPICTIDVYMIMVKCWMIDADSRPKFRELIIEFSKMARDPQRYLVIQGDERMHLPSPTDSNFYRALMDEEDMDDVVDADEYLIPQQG
T2 sequence (P00533 669-1011 T790M/L858R): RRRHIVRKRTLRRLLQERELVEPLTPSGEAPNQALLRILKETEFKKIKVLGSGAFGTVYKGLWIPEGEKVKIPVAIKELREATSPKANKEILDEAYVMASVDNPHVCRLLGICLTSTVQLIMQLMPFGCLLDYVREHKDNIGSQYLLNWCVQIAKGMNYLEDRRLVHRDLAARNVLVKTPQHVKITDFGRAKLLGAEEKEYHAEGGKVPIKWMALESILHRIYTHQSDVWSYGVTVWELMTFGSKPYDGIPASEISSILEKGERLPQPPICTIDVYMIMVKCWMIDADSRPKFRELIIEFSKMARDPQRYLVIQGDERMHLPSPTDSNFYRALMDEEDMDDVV

EC50 [1] | Kd [2] | SMILES
5 to 10 µM | 0.5 to 2.5 µM | C=C(CN(C(=O)NCc1ccc2c(c1)CN(C1CCC(=O)NC1=O)C2=O)c1ccc(C)c(Cl)c1)C(=O)Nc1cc(Nc2ncc(-c3cn(C)c4ccccc34)cn2)c(OC)cc1N(C)CCN(C)C (stereo not drawn) [Compound I-42]
– | < 0.05 µM | C=C(COc1cc(Cl)cc(NC(=O)NCc2ccc3c(c2)CN(C2CCC(=O)NC2=O)C3=O)c1)C(=O)N[C@@H]1CN(c2nc(Nc3cn(C)nc3OC)c3ncn(C)c3n2)C[C@H]1F (stereo partly drawn) [Compound I-45]
0.25 to 5 µM | < 0.05 µM | C=C(COc1ccc(Cl)cc1NC(=O)NCc1ccc2c(c1)CN(C1CCC(=O)NC1=O)C2=O)C(=O)N[C@@H]1CN(c2nc(Nc3cn(C)nc3OC)c3ncn(C)c3n2)C[C@H]1F (stereo partly drawn) [Compound I-47]
0.25 to 5 µM | > 2.5 µM | C=C(COc1cc(Cl)cc(NC(=O)NCc2ccc3c(c2)CN(C2CCC(=O)NC2=O)C3=O)c1)C(=O)N1C[C@H](COc2nc(Nc3cnn(C)c3)nc3[nH]cc(Cl)c23)[C@@H](OC)C1 (stereo partly drawn) [Compound I-54]
> 10 µM | 0.5 to 2.5 µM | C=C(COc1cc(Cl)cc(NC(=O)NCc2ccc3c(c2)CN(C2CCC(=O)NC2=O)C3=O)c1)C(=O)Nc1cccc(Oc2nc(Nc3ccc(N4CCN(C)CC4)cc3)nc3ccsc23)c1 (stereo not drawn) [Compound I-55]
0.25 to 5 µM | < 0.05 µM | C=C(COc1cc(Cl)cc(NC(=O)NCc2ccc3c(c2)CN(C2CCC(=O)NC2=O)C3=O)c1)C(=O)Nc1cc(Nc2nccc(-c3cn(C)c4ccccc34)n2)c(OC)cc1N(C)CCN(C)C (stereo not drawn) [Compound I-59]
< 0.25 µM | < 0.05 µM | C=C(COc1c(Cl)cccc1NC(=O)NCc1ccc2c(c1)CN(C1CCC(=O)NC1=O)C2=O)C(=O)Nc1cc(Nc2nccc(-c3cn(C)c4ccccc34)n2)c(OC)cc1N(C)CCN(C)C (stereo not drawn) [Compound I-60]
> 10 µM | 0.05 to 0.5 µM | C=C(COc1cc(Cl)cc(NC(=O)NCc2ccc3c(c2)CN(C2CCC(=O)NC2=O)C3=O)c1)C(=O)Nc1cccc(-c2cccc3cnc(Nc4ccc(N5CCN(CCO)CC5)c(F)c4F)nc23)c1 (stereo not drawn) [Compound I-61]
0.25 to 5 µM | – | C=C(COc1c(Cl)cccc1NC(=O)NCc1ccc2c(c1)CN(C1CCC(=O)NC1=O)C2=O)C(=O)N[C@@H]1CN(c2nc(Nc3cn(C)nc3OC)c3ncn(C)c3n2)C[C@H]1F (stereo partly drawn) [Compound I-69]
> 10 µM | – | C=C(CN(C(=O)NCc1ccc2c(c1)CN(C1CCC(=O)NC1=O)C2=O)c1ccc(C)c(Cl)c1)C(=O)Nc1cccc(Oc2nc(Nc3ccc(N4CCN(C)CC4)cc3)nc3ccsc23)c1 (stereo not drawn) [Compound I-70]
> 10 µM | – | C=C(CN(C(=O)NCc1ccc2c(c1)CN(C1CCC(=O)NC1=O)C2=O)c1ccc(C)c(Cl)c1)C(=O)N1C[C@@H](COc2nc(Nc3cnn(C)c3)nc3[nH]cc(Cl)c23)[C@H](OC)C1 (stereo partly drawn) [Compound I-71]
< 0.25 µM | < 0.05 µM | C=C(CN1C(=O)CCC(N2Cc3cc(CNC(=O)Nc4ccc(C)c(Cl)c4)ccc3C2=O)C1=O)C(=O)Nc1cc(Nc2ncc(-c3cn(C)c4ccccc34)cn2)c(OC)cc1N(C)CCN(C)C (stereo not drawn) [Compound I-87]
> 10 µM | > 2.5 µM | C=C(COC(=O)n1c(CNc2nc(N3CCNCC3)nc3c(Br)cnn23)nc2cc(C)ccc21)C(=O)N1C[C@H](COc2nc(Nc3cnn(C)c3)nc3[nH]cc(Cl)c23)[C@@H](OC)C1 [Compound V-4]
0.25 to 5 µM | 0.05 to 0.5 µM | C=C(COc1cc(-c2ccccn2)ccc1CNc1nc(N[C@H](CC)CO)nc2c1ncn2C(C)C)C(=O)N[C@@H]1CN(c2nc(Nc3cn(C)nc3OC)c3ncn(C)c3n2)C[C@H]1F [II-183]
> 10 µM | > 2.5 µM | C=C(COC(=O)N1CCN(c2nc(NCc3nc4cc(C)ccc4[nH]3)n3ncc(Br)c3n2)CC1)C(=O)N1C[C@H](COc2nc(Nc3cnn(C)c3)nc3[nH]cc(Cl)c23)[C@@H](OC)C1 [II-185]
< 0.25 µM | < 0.05 µM | C=C(CN1CCN(c2nc(NCc3nc4cc(C)ccc4[nH]3)n3ncc(Br)c3n2)CC1)C(=O)Nc1cc(Nc2nccc(-c3cn(C)c4ccccc34)n2)c(OC)cc1N(C)CCN(C)C [II-188]
> 10 µM | 0.5 to 2.5 µM | C=C(CN1CCN(c2nc(NCc3nc4cc(C)ccc4[nH]3)n3ncc(Br)c3n2)CC1)C(=O)Nc1cccc(-c2cccc3cnc(Nc4ccc(N5CCN(CCO)CC5)c(F)c4F)nc23)c1 [II-191]
